In US6525214B1, “Therapeutic agent” (priority 1991, dated 2003):

Tests used:
[1] = Appearance of formulation made with the drug form; assay type: physicochemical
Protocol: The polyethylene glycol was mixed with about 25% of the required purified water and the Carbopol® dispersed in this mixture. About 56% of the required purified water was added with rapid stirring until the CARBOPOL® was well dispersed and appeared hydrated. The sodium hydroxide was dissolved in a minimum of purified water and added to the bulk with stirring. The S(+)-ibuprofen sodium salt dihydrate was dissolved in a mixture of phenoxyethanol, propylene glycol and remaining purified water and added to the Carbopol® gel with rapid stirring.
The LYCASIN® and glycerin were mixed together. The domiphen bromide was dissolved in the alcohol. The sodium salt was added to this alcoholic solution along with sufficient purified water to produce a solution. The aqueous alcoholic solution was added to the LYCASIN®/glycerin mixture and mixed well. Optional flavourings may be added to the above formulation.
The LYCASIN® and glycerin were mixed together and diluted with a suitable volume of water. The sodium salt was dispersed and dissolved in the mixture. The domiphen bromide was dissolved in the alcohol and this solution added slowly with stirring to the bulk. The formulation was made up to volume and mixed well. Optional flavourings may be added to the formulation.
The powders were sieved through a 30 mesh sieve and blended together, then filled into sachets containing 2000 mg of powder. Optional flavourings may be added to the above mixture.

[2] = in humans; cited from earlier work
[3] = higher strength oral liquid formulation of Example 25
[4] = low strength oral liquid formulation of Example 23
[5] = topical gel formulation of Example 20 (Carbopol gel base)

Structure (SMILES) | Appearance on addition to hot water ([1]; cold relief powder formulation base of Example 27, hot water 70° C. or greater) | Appearance of product [1, 3] | Appearance of product [1, 4] | Appearance of product [1, 5] | Conversion into S(+)-ibuprofen [2]
CC(C)Cc1ccc([C@H](C)C(=O)O)cc1 [S(+)-ibuprofen free acid, S(+)-2-(4-isobutylphenyl)propionic acid] | an unpalatable oily layer on the surface of the hot water | an unsuitable product with the drug floating on the surface | a poor product with a significant proportion of the S(+)-ibuprofen floating on the surface of the product | an opaque product of a high viscosity not suitable for use as a topical rub | 
CC(C)Cc1ccc([C@@H](C)C(=O)O)cc1 [R(−)-ibuprofen, R(−)-2-(4-isobutylphenyl)propionic acid] |  |  |  |  | partially converted into S(+)-ibuprofen
CC(C)Cc1ccc([C@H](C)C(=O)[O-])cc1.O.O.[Na+] [S(−)sodium 2-(4-isobutylphenyl)propionate dihydrate] |  | a clear bright liquid | a bright clear product |  | 
CC(C)Cc1ccc(C(C)C(=O)[O-])cc1.[Na+] (racemic) [sodium salt of ibuprofen racemate, sodium 2-(4-isobutylphenyl)propionate] |  |  |  | a totally unsatisfactory product that separated into a clear upper liquid and a cloudy viscous lower layer | 
